This is an account of results in patent US20120027816A1, “HIGHLY PURE ELETRIPTAN OR A PHARMACEUTICALLY ACCEPTABLE SALT THEREOF SUBSTANTIALLY FREE OF ELETRIPTAN N-OXIDE IMPURITY” (ACTAVIS GROUP PTC EHF, priority 2009, published 2012).

Where a name gives a salt, the structure may show the parent alone.

The nature of the data set: Particle Size Distribution by laser diffraction (Malvern Master Sizer 2000). Format: physicochemical. The conditions noted are these: eletriptan hydrobromide obtained by the Example 4 procedure, unmilled, cumulative volume size distribution. The procedure:
As used herein, “Particle Size Distribution (PSD)” means the cumulative volume size distribution of equivalent spherical diameters as determined by laser diffraction in Malvern Master Sizer 2000 equipment or its equivalent using a particle size method containing Tegiloxan medium with sonication time of 10 seconds and stirrer speed of 2500 rpm. “Mean particle size distribution, i.e., (D50)” correspondingly, means the median of said particle size distribution. The important characteristics of the PSD are the (D90), which is the size, in microns, below which 90% of the particles by volume are found, and the (D50), which is the size, in microns, below which 50% of the particles by volume are found. Thus, a D90 or d(0.9) of less than 300 microns means that 90 volume-percent of the particles in a composition have a diameter less than 300 microns.
Take `CN1CCC[C@@H]1Cc1c[nH]c2ccc(CCS(=O)(=O)c3ccccc3)cc12` [Example 4A, eletriptan hydrobromide]: the “Particle Size Distribution d(0.1)” value turned out to be 12.07 microns, the “Particle Size Distribution d(0.5)” value came out at 27.69 microns and the “Particle Size Distribution d(0.9)” value was found to be 53.92 microns.

Turning to `CN1CCC[C@@H]1Cc1c[nH]c2ccc(CCS(=O)(=O)c3ccccc3)cc12` [Example 4B, eletriptan hydrobromide], the “Particle Size Distribution d(0.1)” value was 9.99 microns, the “Particle Size Distribution d(0.5)” value was determined as 20.85 microns and the “Particle Size Distribution d(0.9)” value is 42.83 microns.

As for `CN1CCC[C@@H]1Cc1c[nH]c2ccc(CCS(=O)(=O)c3ccccc3)cc12` [Example 4C, eletriptan hydrobromide], the “Particle Size Distribution d(0.1)” value turned out to be 13.58 microns, the “Particle Size Distribution d(0.5)” value was determined as 27.25 microns and the “Particle Size Distribution d(0.9)” value was 50.91 microns.
